Values of other authors, collected in PubChem BioAssay AID1259409 (Chemical Carcinogenesis Research Information System (CCRIS), 2018).

Tested on: rodent chemically induced tumor inhibition, incidence and multiplicity
Test: CCRIS tumor inhibitor studies
Details: for outcome: Route [Inhibitor]: DERMAL, Strain/Sex: SENCAR/FEMALE, Target Tissue: Type of Lesion: SKIN: TUMOR, Dose [Carcinogen]: 40 NMOL IN 0.2 ML ACETONE ONCE

## CCCCCCCCCCCCCCCCCCN
Carcinogen: 7,12-DIMETHYLBENZ[A]ANTHRACENE, 57-97-6, Dose [Inhibitor]: 0, 0.01% IN 20% CORN OIL DIET BEGINNING 1 WK POST CARCINOGEN DOSE (STUDY DURATION: 17 WK), Route [Inhibitor]: ORAL, Species: RAT, Strain/Sex: SPRAGUE-DAWLEY/FEMALE, Target Tissue: Type of Lesion: MAMMARY GLAND: ADENOCARCINOMA, Dose [Carcinogen]: 5 MG IN 0.5 ML OLIVE OIL ONCE, Promoter: NONE USED
  tumour outcome (control, treated, inhibition, significance): 57%, 57%, 0%, not significant
Carcinogen: 7,12-DIMETHYLBENZ[A]ANTHRACENE, 57-97-6, Dose [Inhibitor]: 0, 0.1% IN 20% CORN OIL DIET BEGINNING 1 WK POST CARCINOGEN DOSE (STUDY DURATION: 17 WK), Route [Inhibitor]: ORAL, Species: RAT, Strain/Sex: SPRAGUE-DAWLEY/FEMALE, Target Tissue: Type of Lesion: MAMMARY GLAND: ADENOCARCINOMA, Dose [Carcinogen]: 5 MG IN 0.5 ML OLIVE OIL ONCE, Promoter: NONE USED
  tumour outcome (control, treated, inhibition, significance): 57%, 14%, 75%, p<0.001

## CC[C@H](C)C(=O)O[C@H]1C[C@H](O)C=C2C=C[C@H](C)[C@H](CC[C@@H](O)C[C@@H](O)CC(=O)O)[C@H]21
Carcinogen: 1,2-DIMETHYLHYDRAZINE, 540-73-8, Dose [Inhibitor]: 0, 0.001% IN DRINKING WATER FOR 30 WK (STUDY DURATION: 30 WK), Route [Inhibitor]: ORAL, Species: MOUSE, Strain/Sex: ICR/FEMALE, Target Tissue: Type of Lesion: COLON: TUMOR, Dose [Carcinogen]: 10 MG/KG BW 1/WK FOR 15 WK, Promoter: NONE USED
  tumour outcome (control, treated, inhibition, significance): 21/34 (62%), 14/30 (47%), 24%, not significant
Carcinogen: 1,2-DIMETHYLHYDRAZINE, 540-73-8, Dose [Inhibitor]: 0, 0.005% IN DRINKING WATER FOR 30 WK (STUDY DURATION: 30 WK), Route [Inhibitor]: ORAL, Species: MOUSE, Strain/Sex: ICR/FEMALE, Target Tissue: Type of Lesion: COLON: TUMOR, Dose [Carcinogen]: 10 MG/KG BW 1/WK FOR 15 WK, Promoter: NONE USED
  tumour outcome (control, treated, inhibition, significance): 21/34 (62%), 13/30 (43%), 31%, not significant
Carcinogen: 1,2-DIMETHYLHYDRAZINE, 540-73-8, Dose [Inhibitor]: 0, 0.01% IN DRINKING WATER FOR 25 WK (STUDY DURATION: 25 WK), Route [Inhibitor]: ORAL, Species: MOUSE, Strain/Sex: ICR/FEMALE, Target Tissue: Type of Lesion: COLON: TUMOR, Dose [Carcinogen]: 10 MG/KG BW 1/WK FOR 15 WK, Promoter: NONE USED
  tumour outcome (control, treated, inhibition, significance): 6/15 (40%), 2/15 (13%), 68%, not significant
Carcinogen: N-METHYL-N-NITROSOUREA, 684-93-5, Dose [Inhibitor]: 0, 1 PPM IN DRINKING WATER FOR 36 WK BEGINNING POST CARCINOGEN TREATMENT (STUDY DURATION: 40 WK), Route [Inhibitor]: ORAL, Species: RAT, Strain/Sex: F344/FEMALE, Target Tissue: Type of Lesion: COLON: ADENOCARCINOMA, Dose [Carcinogen]: 2 MG 3/WK FOR 3 WK, Promoter: NONE USED
  tumour outcome (control, treated, inhibition, significance): 24/30 (80%), 23/30 (77%), 4%, not significant
Carcinogen: N-METHYL-N-NITROSOUREA, 684-93-5, Dose [Inhibitor]: 0, 5 PPM IN DRINKING WATER FOR 36 WK BEGINNING POST CARCINOGEN TREATMENT (STUDY DURATION: 40 WK), Route [Inhibitor]: ORAL, Species: RAT, Strain/Sex: F344/FEMALE, Target Tissue: Type of Lesion: COLON: ADENOCARCINOMA, Dose [Carcinogen]: 2 MG 3/WK FOR 3 WK, Promoter: NONE USED
  tumour outcome (control, treated, inhibition, significance): 24/30 (80%), 14/29 (48%), 40%, p<0.05
Carcinogen: N-METHYL-N-NITROSOUREA, 684-93-5, Dose [Inhibitor]: 0, 25 PPM IN DRINKING WATER FOR 36 WK BEGINNING POST CARCINOGEN TREATMENT (STUDY DURATION: 40 WK), Route [Inhibitor]: ORAL, Species: RAT, Strain/Sex: F344/FEMALE, Target Tissue: Type of Lesion: COLON: ADENOCARCINOMA, Dose [Carcinogen]: 2 MG 3/WK FOR 3 WK, Promoter: NONE USED
  tumour outcome (control, treated, inhibition, significance): 24/30 (80%), 15/30 (50%), 38%, p<0.05
Carcinogen: N-METHYL-N-NITROSOUREA, 684-93-5, Dose [Inhibitor]: 0, 200 PPM IN DRINKING WATER FOR 40 WK BEGINNING CONCURRENTLY WITH CARCINOGEN TREATMENT (STUDY DURATION: 40 WK), Route [Inhibitor]: ORAL, Species: RAT, Strain/Sex: F344/FEMALE, Target Tissue: Type of Lesion: COLON: ADENOCARCINOMA, Dose [Carcinogen]: 2 MG 3/WK FOR 2 WK, Promoter: NONE USED
  tumour outcome (control, treated, inhibition, significance): 11/16 (69%), 10/16 (63%), 9%, not significant

## C[C@H](CCC(=O)O)[C@H]1CC[C@H]2[C@@H]3[C@@H](O)C[C@@H]4C[C@H](O)CC[C@]4(C)[C@H]3CC[C@]12C
Carcinogen: AZOXYMETHANE, 25843-45-2, Dose [Inhibitor]: 0, 0.2% IN DIET FOR 28 WK BEGINNING 2 WK PRIOR TO CARCINOGEN TREATMENT (STUDY DURATION: 30 WK), Route [Inhibitor]: ORAL, Species: RAT, Strain/Sex: F344/MALE, Target Tissue: Type of Lesion: COLON: TUMOR, Dose [Carcinogen]: 15 MG/KG BW 1/WK FOR 2 WK, Promoter: CHOLIC ACID, 81-25-4
  tumour outcome (control, treated, inhibition, significance): 30/47 (64%), 20/47 (43%), 33%, not significant
Carcinogen: AZOXYMETHANE, 25843-45-2, Dose [Inhibitor]: 0, 0.2% IN DIET FOR 28 WK BEGINNING 2 WK PRIOR TO CARCINOGEN TREATMENT (STUDY DURATION: 30 WK), Route [Inhibitor]: ORAL, Species: RAT, Strain/Sex: F344/MALE, Target Tissue: Type of Lesion: COLON: TUMOR, Dose [Carcinogen]: 15 MG/KG BW 1/WK FOR 2 WK, Promoter: NONE USED
  tumour outcome (control, treated, inhibition, significance): 20/43 (47%), 23/48 (48%), -2%, not significant
Carcinogen: AZOXYMETHANE, 25843-45-2, Dose [Inhibitor]: 0, 0.4% IN DIET FOR 28 WK BEGINNING 2 WK PRIOR TO CARCINOGEN TREATMENT (STUDY DURATION: 30 WK), Route [Inhibitor]: ORAL, Species: RAT, Strain/Sex: F344/MALE, Target Tissue: Type of Lesion: COLON: TUMOR, Dose [Carcinogen]: 15 MG/KG BW 1/WK FOR 2 WK, Promoter: NONE USED
  tumour outcome (control, treated, inhibition, significance): 20/43 (47%), 10/45 (22%), 53%, p<0.05

## CNC[C@H](O)c1ccc(O)c(O)c1
Carcinogen: 4-(METHYLNITROSAMINO)-1-(3-PYRIDLY)-1-BUTANONE [64091-91-4], Dose [Inhibitor]: 1 MG/KG BW 3X/WK FOR 31 WK BEGINNING 1 WK POST LAST CARCINOGEN DOSE (STUDY DURATION: 52 WK), Route [Inhibitor]: SUBCUTANEOUS, Species: HAMSTER, Strain/Sex: SYRIAN/MALE, Target Tissue: Type of Lesion: LUNG: TUMOR, Dose [Carcinogen]: 10 MG/KG BW 3X/WK FOR 20 WK (STUDY DURATION: 52 WK), Promoter: NONE
  tumour outcome (control, treated, inhibition, significance): 12/15 (80.0%), 15/15 (100.0%), -25%, not calculated
Carcinogen: 4-(METHYLNITROSAMINO)-1-(3-PYRIDLY)-1-BUTANONE [64091-91-4], Dose [Inhibitor]: 1 MG/KG BW 3X/WK FOR 31 WK BEGINNING 1 WK POST LAST CARCINOGEN DOSE (STUDY DURATION: 52 WK), Route [Inhibitor]: SUBCUTANEOUS, Species: HAMSTER, Strain/Sex: SYRIAN/MALE, Target Tissue: Type of Lesion: NASAL CAVITY: TUMOR, Dose [Carcinogen]: 10 MG/KG BW 3X/WK FOR 20 WK (STUDY DURATION: 52 WK), Promoter: NONE
  tumour outcome (control, treated, inhibition, significance): 4/15 (26.7%), 3/15 (20.0%), 25%, not calculated

## CN1[C@@H]2CC[C@H]1CC(OC(=O)C(CO)c1ccccc1)C2 (some centres undefined)
Carcinogen: N-METHYL-N'-NITRO-N-NITROSOGUANIDINE, 70-25-7, Dose [Inhibitor]: 0, 0.5 MG/KG IN OLIVE OIL SUSPENSION 1/D BEGINNING 1 WK POST LAST CARCINOGEN DOSE AND CONTINUING FOR DURATION OF STUDY (, Species: RAT, Strain/Sex: WISTAR/MALE, Target Tissue: Type of Lesion: GLANDULAR STOMACH: ADENOCARCINOMA, Dose [Carcinogen]: 50 UG/ML IN DRINKING WATER FOR 25 WK, Promoter: NONE USED
  tumour outcome (control, treated, inhibition, significance): 15/18 (83%), 15/19 (79%), 5%, not calculated

## CC1(C)[C@@H](O)CC[C@]2(C)[C@H]3C(=O)C=C4[C@H]5C[C@@](C)(C(=O)O)CC[C@]5(C)CC[C@@]4(C)[C@]3(C)CC[C@@H]12
Carcinogen: 7,12-DIMETHYLBENZ[A]ANTHRACENE, 57-97-6, Dose [Inhibitor]: 0, 10 UMOL IN 0.2 ML DMSO/ACETONE (1:2) 1/D BEGINNING 7 D PRIOR TO CARCINOGEN DOSE (STUDY DURATION: 16 WK), Species: MOUSE
  outcome: 100%, 65%, 35%, not calculated at 9 wk; 100%, 100%, 0%, not significant at 16 wk
Carcinogen: 7,12-DIMETHYLBENZ[A]ANTHRACENE, 57-97-6, Dose [Inhibitor]: 0, 30 UMOL IN DMSO/ACETONE (1:2) 30 MIN PRIOR TO EACH PROMOTER DOSE (STUDY DURATION: 16 WK), Species: MOUSE
  outcome: 100%, 10%, 90%, not calculated at 9 wk; 100%, 80%, 20%, not calculated at 16 wk

## CC(=O)[C@H]1C[C@@H]2C[C@H]1[C@@H](N=C=S)C2
Carcinogen: 7,12-DIMETHYLBENZ[A]ANTHRACENE, 57-97-6, Dose [Inhibitor]: 0, 100 UMOL/D IN 0.5 ML EMULPHOR EL-620 FOR 5 CONSECUTIVE DAYS BEGINNING AT 47 D OF AGE (STUDY DURATION: 155 D), Route [Inhibitor]: GAVAGE, Species: RAT, Strain/Sex: SPRAGUE-DAWLEY/FEMALE, Target Tissue: Type of Lesion: MAMMARY GLAND: TUMOR, Dose [Carcinogen]: 8 MG IN 1 ML SESAME OIL ONCE AT 50 D OF AGE, Promoter: NONE USED
  tumour outcome (control, treated, inhibition, significance): 17/25 (68%), 9/19 (47%), 31%, not significant

## CCC(C)SSC(C)CC (centres undefined)
Carcinogen: BENZO[A]PYENE, 50-32-8, Dose [Inhibitor]: 0.06 MMOL/G DIET DAILY FOR 6 WK CONCURRENT WITH CARCINOGEN TREATMENT FOLLOWED BY 14 WK ON STANDARD DIET (STUDY DURATION:, Route [Inhibitor]: ORAL, Species: MOUSE, Strain/Sex: ICR/FEMALE, Target Tissue: Type of Lesion: FORESTOMACH: NEOPLASM, Dose [Carcinogen]: 0.3 MG/G IN DIET DAILY FOR 6 WK, Promoter: NONE USED
  tumour outcome (control, treated, inhibition, significance): 40%, 41%, -3%, not significant
